Source: patent publication US7582279B2, “Blood-pool carrier for lipophilic imaging agents” (The Board of Regents of the University of Michigan, priority 1994, dated 2009)

Test system: VX2 tumors
Experiment: CT of hepatic VX2 tumors, co-administration study
Assay type: in vivo, rabbits
Details: VX2 rabbit
From the text: In a particularly advantageous embodiment of the invention, a hepatocyte-selective oil-in-water emulsion is co-administered with the blood-pool agent of the present invention. Liver-selective particulate agents (hepatocyte-selective or Kupffer cell-selective) clear rapidly from the blood and render the blood hypodense relative to surrounding liver tissue. It is very difficult to separate small tumors, which also appear as hypodense areas from small vasculature in the sub 5 mm size range. In order to compensate for this problem, DHOG-PEG (Example 1) and hepatocyte-selective DHOG-LE (Emulsion Example 6, non-radioactive form) were co-administered to rabbits bearing VX2 tumors.
Rabbits (mean weight 2.5 kg) were inoculated with VX2 carcinoma directly into the hepatic parenchyma to produce a total of 8 focal lesions (2-10 mm). Ten days later, the rabbits were scanned with multiple techniques including noncontrast, helical IV enhanced (600 mg I/kg iohexol), and 24 hours later using the iodinated microparticulate emulsion (200 mg I/kg). Tissue density measurements (HU) were made of liver, lesions, and blood (descending aorta). Tumor morphology was verified by gross pathologic examination.

[1] = iohexol 600 mg I/kg, emulsion 200 mg I/kg

## CC(=O)N(CC(O)CO)c1c(I)c(C(=O)NCC(O)CO)c(I)c(C(=O)NCC(O)CO)c1I (stereo not drawn) [iohexol]
  lesion detection (sensitivity), Lesions < 1 cm: 49.3
  lesion detection (sensitivity), Lesions > 1 cm: 97.6
  lesion detection (sensitivity), Overall: 67.6
  liver-to-lesion difference: 28.8
[1]
  enhancement of liver tissue: +66.8 HU
  tumor enhancement: +40.1 HU
